Like-named read-outs stand apart in the source and are kept apart here.
Legend:
LDs in HeLa cells [1] = test: One-photon LDs imaging at 50 nM; type: cell-based; conditions: 405 nm laser intensity 12%
Experimental: One-photon imaging experiments in HeLa cells stained with 50 nM of NAP-Ph, NAP-Br, NAP-CF3, and NAP-Py were performed, and Nile Red was used as comparison. […] As far as we know, this is the lowest concentration used for LDs imaging.

[2] = system: mitochondria in HeLa cells; test: Co-staining imaging with mitochondria dye MitoTracker Deep Red FM; type: cell-based; conditions: NAP-Py^+ 1 μM, MTDR 100 nM
Experimental: (§1) To confirm the intracellular location of NAP AIEgens in live cells, co-staining imaging experiments were performed. […] It is believed that positive-charged dyes like NAP-Py^+ can stain mitochondria due to the high negative membrane potential of mitochondria. To determine why other NAP AIEgens without positive charge locate in LDs, additional investigation was conducted.

[3] = Absorption and fluorescence (photophysical properties) in solvent and solid state; type: physicochemical; conditions: for Φ (fluorescence quantum yield): integrating sphere; for Solvatochromism: toluene, diethyl ether, THF, acetone, DMSO
Experimental: ^1H and ^13C NMR spectra were measured on Bruker ARX 400 NMR spectrometers using CDCl3 as the deuterated solvent. High-resolution mass spectra (HRMS) were recorded on a Finnegan MAT TSQ 7000 Mass Spectrometer System operating in a MALDI-TOF mode. UV absorption spectra were taken on a Milton Ray Spectronic 3000 array spectrophotometer. Steady-state fluorescence spectra were recorded on a Perkin Elmer LS 55 spectrometer. Fluorescence images were collected on Olympus BX 41 fluorescence microscope. Laser confocal scanning microscope images were collected on Zeiss laser scanning confocal microscope (LSM7 DUO) and analyzed using ZEN 2009 software (Carl Zeiss). Two-photon fluorescence imaging was carried out on Olympus FV 300 laser confocal microscope. In two-photon experiments, the excitation wavelengths were 860 nm from a Ti:sapphire femtosecond laser source (coherent chamelon ultra) and the incident power on samples was modified by means of an attenuator and examined with a power monitor (Coherent). A multiphoton emission filter (FF01-750; Semrock) was used to block the IR laser.
The absorption and fluorescence (FL) data of the NAP AIEgens were investigated, and corresponding spectra are shown in FIGS. 5A-5H, 6A-6E, and FIG. 7.
This phenomenon is probably due to the changes in morphology and size of the aggregates formed in the water-THF mixture with high water fractions. […] It should be noted that the FL of NAP AIEgens in high water fraction (fw>90%) increased only several-fold compared with that in THF or CH3CN (FIG. 5G), probably because of formation of loosely packed aggregates. […] The FL spectra of NAP AIEgens were further measured in different polar solvents (FIGS. 6A-6E). […] As for NAP-CF3, the reason for blue-shifted FL in the solid state was likely its twisted structure (FIG. 2E), resulting in only […] π-π interaction rather than J-aggregation (FIG. 2B). […] The FL quantum yields (QYs, Table 1) of NAP AIEgens were measured by using an integrating sphere. […] It should be pointed out that the solid FL QY of NAP-Py^+ was low, likely due to a narrow energy gap and enhanced nonradiative transitions in NIR fluorescent dyes (FIG. 7). Furthermore, longer FL lifetimes of NAP AIEgens in the solid state than those in solvents also verified that restriction of intramolecular motion (RIM) can prohibit energy dissipation via non-radiative channels and enhance the FL of NAP AIEgens (Table 1).

LDs in HeLa cells [4] = test: Co-staining imaging with LDs dye Nile Red (CLSM); type: cell-based; conditions: 100 nM
Experimental: as §1

HeLa cells = test: Photostability under continuous confocal laser irradiation; type: cell-based; conditions: continuous irradiation for 10 min; NAP AIEgens 405 nm, Nile Red 543 nm, power 12%
Experimental: FIG. 20 is a graph depicting photostability of NAP AIEgens and Nile Red in HeLa cells under continuous irradiation (irradiation conditions: for NAP AIEgens, 405 nm laser, laser power of 12%; for Nile Red, 543 nm laser, laser power of 12%).
Considering the above-mentioned excellent bioimaging characteristics of these NAP AIEgens, further experiments were performed to evaluate their photostability and cytotoxicity. The photostability of NAP AIEgens was evaluated by continuous irradiation with confocal lasers, and data was collected every second. […] Furthermore, standard MTT (3-(4,5-dimethylthiazol-2-yl)-2,5-diphenyl-2H-tetrazolium) assays were performed to evaluate the cytotoxicity of NAP AIEgens in live cells.

[5] = Two-photon absorption (TPA) cross section of aggregate suspensions, fluorescein as standard; type: physicochemical; conditions: aggregate suspension in H2O containing 1% CH3CN
Experimental: With fluorescein as the standard, the TPA cross sections (δ) of NAP AIEgens at different wavelengths were also measured (FIG. 8F). […] To further acquire the TPEF, NAP AIEgens in solid states were directly excited at 800 nm (intensity of about 0.35 mW).

[6] = system: LDs in live mice liver tissue; test: Ex vivo two-photon imaging of live mice liver tissue; conditions: 1 μM, 1 h incubation, λex 860 nm
Experimental: TP fluorescence imaging outperforms imaging in one-photon mode as a result of high penetration in tissues and low background fluorescence because of near-infrared light excitation and low excitation power. […] After incubation with NAP-CF3 (1 μM) for 1 h, bright spherical spots with TP fluorescence of NAP-CF3 were observed (FIG. 18). For the live mice liver tissue without NAP-CF3, however, only low background fluorescence was obtained. […] To investigate whether NAP-CF3 could show LDs-specific staining in deep live mice liver tissue, TP fluorescence images along the Z-axis were captured. As shown in FIGS. 19A-19F, the fluorescent signal of the spherical spot could be clearly detected at different Z-axis depths even up to 70 μm. […] These excellent TP tissue imaging properties render NAP-CF3 a tremendous tool to visualize LDs-associated biomedical application in live tissues.

[7] = THF or CH3CN (CH3CN for NAP-Py^+)
[8] = THF or CH3CN (CH3CN for NAP-Py^+), listed as NAP-Py^+

Structure (SMILES) | LDs staining (LDs in HeLa cells [1]) | αAIE = Φsolid/Φsolvent [3] | λem max ([3]; Solid) [nm] | τ (fluorescence lifetime) ([3]; Solid) [ns] | Φ (fluorescence quantum yield) ([3]; Solid) | Stokes shift [3, 7] [nm] | λabs max [3, 7] [nm] | λem max [3, 7] [nm] | τ (fluorescence lifetime) [3, 7] [ns] | Φ (fluorescence quantum yield) [3, 7] | Solvatochromism [3] | Pearson's coefficient with Nile Red (LDs in HeLa cells [4]) | Fluorescence intensity change under irradiation (HeLa cells) | further results
COc1c(/C=C(\C#N)c2ccc(-c3ccncc3)cc2)ccc2cc(N(C)C)ccc12 [NAP-Py] | clear fluorescence | 14.47 | 619 | 1.39 | 0.217 | 128 | 413 | 541 | <0.67 | 0.015 | positive solvatochromism | 0.88 | dropped to some extent | Pearson's coefficient with MitoTracker Deep Red FM [2]: 0.89; Φ (fluorescence quantum yield) ([3]; Solid, listed as NAP-Py^+): 0.048; λem max ([3]; Solid, listed as NAP-Py^+): 676 nm; τ (fluorescence lifetime) ([3]; Solid, listed as NAP-Py^+): 1.32 ns; Φ (fluorescence quantum yield) [3, 8]: 0.008; Stokes shift [3, 8]: 85 nm; λabs max [3, 8]: 455 nm; λem max [3, 8]: 540 nm; τ (fluorescence lifetime) [3, 8]: <0.58 ns; αAIE = Φsolid/Φsolvent ([3]; listed as NAP-Py^+): 6.00; Solvatochromism ([3]; listed as NAP-Py^+): negative solvatochromism; TPA cross section (δ) value [5]: very large
COc1c(/C=C(\C#N)c2ccc(Br)cc2)ccc2cc(N(C)C)ccc12 [NAP-Br] | clear fluorescence | 9.00 | 597 | 4.43 | 0.126 | 116 | 409 | 525 | <0.60 | 0.014 | positive solvatochromism | 0.83 | dropped to some extent | 
COc1c(/C=C(\C#N)c2ccc(-c3ccccc3)cc2)ccc2cc(N(C)C)ccc12 [NAP-Ph] | clear fluorescence | 14.89 | 566 | 1.42 | 0.268 | 114 | 409 | 523 | <0.34 | 0.018 | positive solvatochromism | 0.90 | dropped to some extent | λem max ([3]; THF/water mixture, water fraction 90%, aggregates): 557 nm
COc1c(/C=C(\C#N)c2cc(C(F)(F)F)cc(C(F)(F)F)c2)ccc2cc(N(C)C)ccc12 [NAP-CF3] | clear fluorescence | 18.25 | 555 | 6.29 | 0.292 | 135 | 425 | 560 | <0.67 | 0.016 | positive solvatochromism | 0.85 |  | LDs staining in live mice liver tissue [6]: excellent LDs staining property; Z-axis depth at which fluorescent signal is detected [6]: up to 70 μm
CCN(CC)c1ccc2nc3c4ccccc4c(=O)cc-3oc2c1 [Nile Red, reference compound] | non-specific staining in cytoplasm |  |  |  |  |  |  |  |  |  |  |  | drastically decreased | 
